This passage reports IC50 and inhibition results from patent publication US20240083857A1, “2-Methyl-Quinazolines” (Bayer Pharma Aktiengesellschaft, priority 2017, published 2024).

For assay [1], the target named is K-Ras^G12C : hSOS1 interaction (Homo sapiens, UniProt Q07889). Description: Biochemical assay 1: K-Ras^G12C interaction assay with hSOS1 (HTRF). Type of assay: binding. Particulars: for pIC50: read-out: Assay 1 (KRAS-SOS Interaction) activity expressed as IC50.
In assay [2] the target is human SOS1 (loading of human K-Ras^G12C-GDP with fluorescent GTP-analog) (Homo sapiens, UniProt Q07889). The assay can be described thus: Biochemical assay 3: K-Ras^G12C activation assay by hSOS1 (HTRF). Particulars: no GTP; for pIC50: read-out: Assay 3 (KRAS-Activation by SOS no GTP) activity expressed as IC50; for inhibition at 20 µM: read-out: Assay 3 (KRAS-Activation by SOS no GTP) activity expressed as % inhibition at 20 μM.

pIC50: −log10 of the molar value.

Consider `COc1cc2nc(C)nc(NC(C)c3cccc4c3CCCC4)c2cc1OC` (stereo not drawn) [Example 11, 6,7-dimethoxy-2-methyl-N-[1-(5,6,7,8-tetrahydronaphthalen-1-yl)ethyl]quinazolin-4-amine], for which the values for the pIC50 in assay [1] and in assay [2] were 6.69 and 6.27, respectively.
Taken in the same sequence, the figures for `COc1cc2nc(C)nc(NC(C)c3cc(C)c(Br)s3)c2cc1OC` (stereo not drawn) [Example 183, N-[1-(5-bromo-4-methylthiophen-2-yl)ethyl]-6,7-dimethoxy-2-methylquinazolin-4-amine] were 5.68 and 5.04.
Taken in the same sequence, the figures for `COc1cc2nc(C)nc(NC(C)c3ccc(-c4ccccc4CN4CCCC4)s3)c2cc1OC` (stereo not drawn) [Example 184, 6,7-dimethoxy-2-methyl-N-[1-{5-[2-(pyrrolidin-1-ylmethyl)phenyl]thiophen-2-yl}ethyl]quinazolin-4-amine] were 7.38 and 6.91.
As for `COc1cc2nc(C)nc(NC(C)c3ccc(-c4cccc(CCO)c4)s3)c2cc1OC` (stereo not drawn) [Example 181, 2-[3-(5-{1-[(6,7-dimethoxy-2-methylquinazolin-4-yl)amino]ethyl}thiophen-2-yl)phenyl]ethanol], in assay [1], the pIC50 – broadly, −log10 of the IC50, conventionally taken in molar units – was 5.46. Further, the inhibition (usually how much of the control response was suppressed) at 20 µM in assay [2] is 45%.
Turning to `COc1cc2nc(C)nc(NC(C)c3ccc(-c4cnn(CC(N)=O)c4)s3)c2cc1OC` (stereo not drawn) [Example 249, 2-[4-(5-{1-[(6,7-dimethoxy-2-methylquinazolin-4-yl)amino]ethyl}thiophen-2-yl)-1H-pyrazol-1-yl]acetamide], the pIC50 in assay [1] was 5.21; in assay [2] it was 5.06.
On the same counts, the results for `COc1cc2nc(C)nc(NC(C)c3cc(Br)cc4c3OCC4)c2cc1OC` (stereo not drawn) [Example 214, N-[1-(5-bromo-2,3-dihydro-1-benzofuran-7-yl)ethyl]-6,7-dimethoxy-2-methylquinazolin-4-amine] are 5.48 and 4.87.
Taken in the same sequence, the figures for `COc1cc2nc(C)nc(NC(C)c3cccc4ccoc34)c2cc1OC` (stereo not drawn) [Example 4, N-[1-(1-benzofuran-7-yl)ethyl]-6,7-dimethoxy-2-methylquinazolin-4-amine] were 6.79 and 6.32.
As for `COc1cc2nc(C)nc(N[C@H](C)c3ccc(S(C)(=O)=O)cc3)c2cc1OC` [Example 188, 6,7-dimethoxy-2-methyl-N-{(1R)-1-[4-(methylsulfonyl)phenyl]ethyl}quinazolin-4-amine], the pIC50 in assay [1] was 4.80. In addition, in assay [2], the inhibition at 20 µM is 38%.
For the compound `COc1cc2nc(C)nc(NC(C)c3cc4cccc(O)c4o3)c2cc1OC` (stereo not drawn) [Example 28, 2-{-[(6,7-dimethoxy-2-methyquinazolin-4-yl)amino]ethyl}-1-benzofuran-7-ol], the inhibition at 20 µM worked out at 40% in assay [1] (read-out: Assay 1 (KRAS-SOS Interaction) activity expressed as % inhibition at 20 μM) and 46% in assay [2].
With `COc1cc2nc(C)nc(NC(C)c3cccc(Oc4ccccc4)c3)c2cc1OC` (stereo not drawn) [Example 215, 6,7-dimethoxy-2-methyl-N-[1-(3-phenoxyphenyl)ethyl]quinazolin-4-amine], the pIC50 in assay [1] was 6.04; in assay [2], 5.53.
As to `COc1cc2nc(C)nc(NC(C)c3ccc(-c4ccccc4CCO)s3)c2cc1OC` (stereo not drawn) [Example 180, 2-[2-(5-{1-[(6,7-dimethoxy-2-methylquinazolin-4-yl)amino]ethyl}thiophen-2-yl)phenyl]ethanol], the pIC50 in assay [1] was 6.62; in assay [2] it was 6.09.
On the same counts, the results for `COc1cc2nc(C)nc(NC(C)c3ccc(-c4cc[nH]n4)s3)c2cc1OC` (stereo not drawn) [Example 222, 6,7-dimethoxy-2-methyl-N-{1-[5-(1H-pyrazol-3-yl)thiophen-2-yl]ethyl}quinazolin-4-amine] are 5.41 and 4.87.
On the same counts, the results for `COc1cc2nc(C)nc(NC(C)c3ccc(F)c4[nH]ncc34)c2cc1OC` (stereo not drawn) [Example 5, N-[1-(7-fluoro-1H-indazol-4-yl)ethyl]-6,7-dimethoxy-2-methylquinazolin-4-amine] are 5.77 and 5.30.
Taken in the same sequence, the figures for `COc1cc2nc(C)nc(NC(C)c3ccc(C4=CCOCC4)s3)c2cc1OC` (stereo not drawn) [Example 235, N-{1-[5-(3,6-dihydro-2H-pyran-4-yl)thiophen-2-yl]ethyl}-6,7-dimethoxy-2-methylquinazolin-4-amine] were 5.26 and 5.28.
Take `COc1cc2nc(C)nc(NC(C)c3ccc(-c4ccccc4)o3)c2cc1OC` (stereo not drawn) [Example 213, 6,7-dimethoxy-2-methyl-N-[1-(5-phenylfuran-2-yl)ethyl]quinazolin-4-amine]: the negative logarithm of the IC50 (pIC50) in assay [1] is 5.17. Besides, in assay [2], the inhibition at 20 µM was 42%.
For the compound `COc1cc2nc(C)nc(N[C@H](C)c3ccccc3)c2cc1OC` [Example 206, 6,7-dimethoxy-2-methyl-N-[(1R)-1-phenylethyl]quinazolin-4-amine], the pIC50 is 6.32 in assay [1] and 5.76 in assay [2].
With `COc1cc2nc(C)nc(N[C@H](C)c3cccc(C4=CCN(C)CC4)c3)c2cc1OC` [Example 202, 6,7-dimethoxy-2-methyl-N-{(1R)-1-[3-(1-methyl-1,2,3,6-tetrahydropyridin-4-yl)phenyl]ethyl}quinazolin-4-amine], the values for the pIC50 in assay [1] and in assay [2] were 5.85 and 5.27, respectively.
On the same counts, the results for `COC(=O)c1ccccc1-c1ccc(C(C)Nc2nc(C)nc3cc(OC)c(OC)cc23)s1` (stereo not drawn) [Example 178, methyl 2-(5-{1-[(6,7-dimethoxy-2-methylquinazolin-4-yl)amino]ethyl}thiophen-2-yl)benzoate] are 5.84 and 5.15.
Take `COc1cc2nc(C)nc(NC(C)c3ccc(-c4cnn(CCO)c4)s3)c2cc1OC` (stereo not drawn) [Example 218, 2-[4-(5-{1-[(6,7-dimethoxy-2-methylquinazolin-4-yl)amino]ethyl}thiophen-2-yl)-1H-pyrazol-1-yl]ethanol]: the pIC50 in assay [1] was 5.71; in assay [2], 5.42.
On the same counts, the results for `COc1cc2nc(C)nc(NC(C)c3ccc(-c4cnn(CCN5CCCC5)c4)s3)c2cc1OC` (stereo not drawn) [Example 220, 6,7-dimethoxy-2-methyl-N-[1-(5-{1-[2-(pyrrolidin-1-yl)ethyl]-1H-pyrazol-4-yl}thiophen-2-yl)ethyl]quinazolin-4-amine] are 6.42 and 6.00.
On to `COc1cc2nc(C)nc(NC(C)c3ccc(-c4ccccc4CN4CCC(C(N)=O)CC4)s3)c2cc1OC` (stereo not drawn) [Example 179, 1-[2-(5-{1-[(6,7-dimethoxy-2-methylquinazolin-4-yl)amino]ethyl}thiophen-2-yl)benzyl]piperidine-4-carboxamide], for which the pIC50 in assay [1] is 7.04; in assay [2], 6.67.
For `C=C(C)c1ccc([C@@H](C)Nc2nc(C)nc3cc(OC)c(OC)cc23)cc1` [Example 203, 6,7-dimethoxy-2-methyl-N-{(1R)-1-[4-(prop-1-en-2-yl)phenyl]ethyl}quinazolin-4-amine], the pIC50 in assay [1] was 5.86; in assay [2], 5.47.
Taken in the same sequence, the figures for `COc1cc2nc(C)nc(NC(C)c3cccc4nn(C)cc34)c2cc1OC` (stereo not drawn) [Example 9, 6,7-dimethoxy-2-methyl-N-[1-(2-methyl-2H-indazol-4-yl)ethyl]quinazolin-4-amine] were 5.82 and 5.22.
On the same counts, the results for `COc1cc2nc(C)nc(NC(C)c3cc(F)cc4[nH]ncc34)c2cc1OC` (stereo not drawn) [Example 6, N-[1-(6-fluoro-1H-indazol-4-yl)ethyl]-6,7-dimethoxy-2-methylquinazolin-4-amine] are 5.64 and 5.30.
